Read-outs that look alike come from different tables or passages of the source.
Legend:
[1] = system: PSMA + PC3-PIP and PSMA-PC3-flu flank xenografts; details: for Biodistribution, Blood / Biodistribution, Flu tumor / Biodistribution, Kidneys / Biodistribution, Lacrimal glands / Biodistribution, Pip (tumor) / Biodistribution, Salivary glands / Biodistribution, Spleen / Biodistribution, Stomach: without cold blocking agent
Protocol: Final compounds were purified by HPLC. […] Organs were harvested 1, 4, and 24 h post-injection (n=5 per time point).

[2] = system: PSMA+PC3-PIP and PSMA-PC3-flu flank xenografts; assay: Biodistribution of [125I/211At]2 and 3 with and without co-injection of DCIBzL (Example 6); assay type: in vivo, athymic mice
Excerpt: Final compounds were purified by HPLC.

O=C([O-])CN1CCN(CC(=O)[O-])CCN(CC(=O)NCCCCC(=O)N(CCCC[C@H](NC(=O)N[C@@H](CCC(=O)O)C(=O)O)C(=O)O)Cc2ccc([125I])cc2)CCN(CC(=O)[O-])CC1.[Lu+3] [[^125I]VK-02-90-Lu]
Biodistribution, Blood ([1]; 1 H): 1.2 ± 0.4 % injected dose/g
Biodistribution, Flu tumor ([1]; 1 H): 0.9 ± 0.3 % injected dose/g
Biodistribution, Kidneys ([1]; 1 H): 180 ± 36 % injected dose/g
Biodistribution, Lacrimal glands ([1]; 1 H): 4.1 ± 1.3 % injected dose/g
Biodistribution, Pip (tumor) ([1]; 1 H): 51 ± 8.5 % injected dose/g
Biodistribution, Salivary glands ([1]; 1 H): 1.0 ± 0.3 % injected dose/g
Biodistribution, Spleen ([1]; 1 H): 7.4 ± 2.6 % injected dose/g
Biodistribution, Stomach ([1]; 1 H): 0.7 ± 0.4 % injected dose/g
Biodistribution, Blood ([1]; 4 H): 0.06 ± 0.06 % injected dose/g
Biodistribution, Flu tumor ([1]; 4 H): 0.3 ± 0.5 % injected dose/g
Biodistribution, Kidneys ([1]; 4 H): 18.2 ± 4.9 % injected dose/g
Biodistribution, Lacrimal glands ([1]; 4 H): 0.3 ± 0.1 % injected dose/g
Biodistribution, Pip (tumor) ([1]; 4 H): 27.8 ± 17 % injected dose/g
Biodistribution, Salivary glands ([1]; 4 H): 0.1 ± 0.05 % injected dose/g
Biodistribution, Spleen ([1]; 4 H): 0.6 ± 0.2 % injected dose/g
Biodistribution, Stomach ([1]; 4 H): 0.1 ± 0.1 % injected dose/g
Biodistribution, Blood ([1]; 24 H): 0.1 ± 0.01 % injected dose/g
Biodistribution, Flu tumor ([1]; 24 H): 0.03 ± 0.01 % injected dose/g
Biodistribution, Kidneys ([1]; 24 H): 3.3 ± 1.1 % injected dose/g
Biodistribution, Lacrimal glands ([1]; 24 H): 0.06 ± 0.03 % injected dose/g
Biodistribution, Pip (tumor) ([1]; 24 H): 24.0 ± 6.2 % injected dose/g
Biodistribution, Salivary glands ([1]; 24 H): 0.03 ± 0.01 % injected dose/g
Biodistribution, Spleen ([1]; 24 H): 0.1 ± 0.06 % injected dose/g
Biodistribution, Stomach ([1]; 24 H): 0.04 ± 0.01 % injected dose/g
clearance from the spleen, salivary glands, lacrimal glands and kidneys ([1]; compared with [^125I]VK-02-90): faster clearance
retention of radioactivity, lacrimal glands (LG) ([2]; 1h, no co-injection): 4.1±1.3 % ID/g
retention of radioactivity, salivary glands (SG) ([2]; 1h, no co-injection): 1.0±0.3 % ID/g
retention of radioactivity, kidneys (K) ([2]; 4 h, no co-injection): 18.2±4.9 % ID/g
retention of radioactivity, kidneys (K) ([2]; 24 h, no co-injection): 3.3±1.1 % ID/g
Stomach uptake ([2]; @ 1 h): 1.8±0.2 % ID/g
retention, K ([2]; @1 h, co-injection of DCIBzL): 4.2±1.3 % ID/g
retention, LG ([2]; @1 h, co-injection of DCIBzL): 0.5±0.1 % ID/g
retention, SG ([2]; @1 h, co-injection of DCIBzL): 3.2±0.7 % ID/g
Stomach uptake ([2]; @ 4 h): 0.8±0.5 % ID/g
Stomach uptake ([2]; @ 24 h): 0.1±0.04 % ID/g

From patent US11813340B2, “PSMA targeted radiohalogenated urea-polyaminocarboxylates for cancer radiotherapy” (The Johns Hopkins University, priority 2018, dated 2023)
